In experiment [1] the target is T1, human vasopressin-1b receptor (hV1bR) (Homo sapiens, UniProt P47901).
T1 construct: host or cells: COS-1
T1 sequence (P47901 1-424): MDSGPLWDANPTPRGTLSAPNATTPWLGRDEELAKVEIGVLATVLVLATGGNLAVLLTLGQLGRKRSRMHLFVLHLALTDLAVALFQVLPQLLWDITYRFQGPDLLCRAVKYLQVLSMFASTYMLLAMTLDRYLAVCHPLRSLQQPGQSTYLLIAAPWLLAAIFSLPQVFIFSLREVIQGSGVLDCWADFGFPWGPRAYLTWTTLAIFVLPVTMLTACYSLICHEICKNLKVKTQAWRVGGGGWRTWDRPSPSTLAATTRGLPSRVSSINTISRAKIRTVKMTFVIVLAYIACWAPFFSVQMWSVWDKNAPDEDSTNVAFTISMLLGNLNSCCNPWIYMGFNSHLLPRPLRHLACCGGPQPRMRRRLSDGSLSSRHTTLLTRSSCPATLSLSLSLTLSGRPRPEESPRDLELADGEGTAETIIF
The experiment can be described thus: cell-based. It counts as cell-based.

Experiment [2] has as its system zebrafish vasopressin1-a2 receptor (ZF V1a2R). It counts as cell-based, zebrafish (Danio rerio).
For experiment [3], the target named is T2, human vasopressin2 receptor (hV2R) (Homo sapiens, UniProt P30518).
T2 construct: host or cells: COS-1
The experiment can be described thus: cell-based.

The test system of experiment [4] is zebrafish vasopressin2 receptor (ZF V2R). Type of experiment: cell-based, zebrafish (Danio rerio). The note with it: for EC50: read-out: Mean EC50 ZF V2R.
For experiment [5], the target named is zebrafish vasopressin1-a1 receptor (ZF V1a1R). It counts as cell-based, zebrafish (Danio rerio).
In experiment [6] the target is T3, zebrafish oxytocin/isotocin receptor (ZF oxy/isoR) (Danio rerio, UniProt E4W699).
T3 construct: host or cells: COS-1
T3 sequence (E4W699 1-388): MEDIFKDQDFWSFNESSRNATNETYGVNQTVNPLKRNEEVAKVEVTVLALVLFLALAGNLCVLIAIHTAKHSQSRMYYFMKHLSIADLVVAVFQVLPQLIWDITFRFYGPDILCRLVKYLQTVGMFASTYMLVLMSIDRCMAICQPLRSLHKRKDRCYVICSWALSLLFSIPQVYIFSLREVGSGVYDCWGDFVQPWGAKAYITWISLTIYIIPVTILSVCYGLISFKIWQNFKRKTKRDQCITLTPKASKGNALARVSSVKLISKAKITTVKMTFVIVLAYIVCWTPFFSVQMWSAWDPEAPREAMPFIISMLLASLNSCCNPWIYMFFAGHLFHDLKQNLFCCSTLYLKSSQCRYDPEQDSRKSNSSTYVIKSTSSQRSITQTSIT
The experiment can be described thus: cell-based. It counts as cell-based.

The target of experiment [7] is T4, human oxytocin receptor (hOTR) (Homo sapiens, UniProt P30559).
T4 construct: host or cells: COS-1
T4 sequence (P30559 1-389): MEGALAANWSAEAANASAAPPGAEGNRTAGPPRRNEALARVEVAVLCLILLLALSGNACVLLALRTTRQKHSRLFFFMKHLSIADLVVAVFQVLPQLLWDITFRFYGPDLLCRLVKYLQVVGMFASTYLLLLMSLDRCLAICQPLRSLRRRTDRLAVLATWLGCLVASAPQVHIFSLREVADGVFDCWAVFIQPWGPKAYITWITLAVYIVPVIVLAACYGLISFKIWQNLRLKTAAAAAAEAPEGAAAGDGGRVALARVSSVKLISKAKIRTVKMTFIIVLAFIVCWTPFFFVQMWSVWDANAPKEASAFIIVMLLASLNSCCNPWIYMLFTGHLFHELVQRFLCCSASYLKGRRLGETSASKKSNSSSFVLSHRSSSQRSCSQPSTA
The experiment is described as follows: cell-based. It counts as cell-based.

Experiment [8] has as its target T5, human vasopressin-1a receptor (hV1aR) (Homo sapiens, UniProt P37288).
T5 construct: host or cells: COS-1
The experiment can be described thus: cell-based.

Molecules are shown by their SMILES. Residues, ends and D or L forms follow the SMILES beside them.

T2 sequence (P30518 whole entry): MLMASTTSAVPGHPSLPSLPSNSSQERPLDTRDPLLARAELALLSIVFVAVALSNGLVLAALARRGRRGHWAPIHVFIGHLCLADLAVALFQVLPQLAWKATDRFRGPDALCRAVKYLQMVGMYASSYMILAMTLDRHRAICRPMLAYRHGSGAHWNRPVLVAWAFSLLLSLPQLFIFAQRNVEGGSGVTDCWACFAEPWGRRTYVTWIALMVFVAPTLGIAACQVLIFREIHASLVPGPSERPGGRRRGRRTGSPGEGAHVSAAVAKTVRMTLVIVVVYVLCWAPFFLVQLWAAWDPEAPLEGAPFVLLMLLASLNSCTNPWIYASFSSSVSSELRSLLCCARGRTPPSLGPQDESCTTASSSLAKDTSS
T5 sequence (P37288 whole entry): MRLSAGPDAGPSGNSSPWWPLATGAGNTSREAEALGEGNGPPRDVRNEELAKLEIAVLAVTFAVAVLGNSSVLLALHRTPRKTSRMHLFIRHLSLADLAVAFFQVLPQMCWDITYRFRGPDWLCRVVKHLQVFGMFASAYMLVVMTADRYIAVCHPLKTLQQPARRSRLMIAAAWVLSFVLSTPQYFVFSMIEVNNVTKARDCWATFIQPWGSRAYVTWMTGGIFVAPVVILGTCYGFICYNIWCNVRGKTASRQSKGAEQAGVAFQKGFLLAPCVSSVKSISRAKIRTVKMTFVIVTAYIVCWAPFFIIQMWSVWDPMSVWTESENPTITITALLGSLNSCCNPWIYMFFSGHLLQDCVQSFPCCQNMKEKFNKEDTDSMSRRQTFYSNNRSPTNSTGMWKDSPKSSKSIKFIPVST

As a reminder, the EC50 is the concentration at which the effect is half-maximal. Turning to `CC[C@H](C)[C@@H]1NC(=O)[C@H](Cc2ccccc2)NC(=O)[C@@H](N)CSSC[C@@H](C(=O)N2CCC[C@H]2C(=O)N[C@@H](CCCCN)C(=O)NCC(N)=O)NC(=O)[C@H](CC(N)=O)NC(=O)[C@H](CCCNC(=N)N)NC1=O` [Con-G, conopressin-G] (HELM PEPTIDE1{C.F.I.R.N.C.P.K.G.[am]}$PEPTIDE1,PEPTIDE1,1:R3-6:R3$$$V2.0), in experiment [1], the EC50 was found to be 0.052 µM and the “Selectivity hV1bR” value is given as “ZF V1a1R (x42.9) > ZF V1a2R (x10.3) > hV1bR (x8.8) > ZF V2R (x7.5) > hV1aR (x3.7) > hV2R (x1.5) > ZF oxy (x1.3) > hOTR”. Moreover, in experiment [2], the “Selectivity ZF V1a2R” value is reported as “ZF V1a1R (x42.9) > ZF V1a2R (x10.3) > hV1bR (x8.8) > ZF V2R (x7.5) > hV1aR (x3.7) > hV2R (x1.5) > ZF oxy (x1.3) > hOTR” and the “response of control at ZF V1a2R (partial agonist)” value was 69%. In experiment [3], the EC50 was determined as 0.3 µM and the “Selectivity hV2R” value is “ZF V1a1R (x42.9) > ZF V1a2R (x10.3) > hV1bR (x8.8) > ZF V2R (x7.5) > hV1aR (x3.7) > hV2R (x1.5) > ZF oxy (x1.3) > hOTR”. For the same compound, the “Selectivity ZF V2R” value in experiment [4] is recorded as “ZF V1a1R (x42.9) > ZF V1a2R (x10.3) > hV1bR (x8.8) > ZF V2R (x7.5) > hV1aR (x3.7) > hV2R (x1.5) > ZF oxy (x1.3) > hOTR”. Also, in experiment [5], the EC50 is 10 nM and the “Selectivity ZF V1a1R” value is on record as “ZF V1a1R (x42.9) > ZF V1a2R (x10.3) > hV1bR (x8.8) > ZF V2R (x7.5) > hV1aR (x3.7) > hV2R (x1.5) > ZF oxy (x1.3) > hOTR”. Also, in experiment [6], the “Selectivity ZF oxy” value is “ZF V1a1R (x42.9) > ZF V1a2R (x10.3) > hV1bR (x8.8) > ZF V2R (x7.5) > hV1aR (x3.7) > hV2R (x1.5) > ZF oxy (x1.3) > hOTR” and the “response of control at ZF oxy/isoR (partial agonist)” value turned out to be 62%. Besides, in experiment [7], the “response of control at hOTR (partial agonist)” value was 28%. Moreover, in experiment [8], the EC50 is 0.123 µM and the “Selectivity hV1aR” value is listed as “ZF V1a1R (x42.9) > ZF V1a2R (x10.3) > hV1bR (x8.8) > ZF V2R (x7.5) > hV1aR (x3.7) > hV2R (x1.5) > ZF oxy (x1.3) > hOTR”.

On to `NC(=O)C[C@@H]1NC(=O)CNC(=O)[C@@H]2CCCN2C(=O)[C@H](Cc2ccccc2)NC(=O)[C@@H](N)CSSC[C@@H](C(=O)N2CCC[C@H]2C(=O)N[C@@H](CC(=O)O)C(=O)N[C@@H](CO)C(N)=O)NC1=O` [Con-M1am, conopressin-M1] (HELM PEPTIDE1{C.F.P.G.N.C.P.D.S.[am]}$PEPTIDE1,PEPTIDE1,1:R3-6:R3$$$V2.0), for which the EC50 in experiment [1] was 38.2 µM; in experiment [2], > 100 µM; in experiment [3] it was > 100 µM; in experiment [4], > 100000 nM; in experiment [6], > 100 µM; in experiment [7], > 100 µM. In addition, in experiment [8], the EC50 was > 100 µM. Moreover, the “response of control at hV1b (weak and partial agonist)” value in experiment [1] was 26%.

On to `CC(C)C[C@@H]1NC(=O)[C@H](Cc2ccccc2)NC(=O)[C@@H](N)CSSC[C@@H](C(=O)N2CCC[C@H]2C(=O)N[C@@H](CC(=O)O)C(=O)N[C@@H](CO)C(N)=O)NC(=O)[C@H](CC(N)=O)NC(=O)CNC1=O` [Con-M2am, conopressin-M2] (HELM PEPTIDE1{C.F.L.G.N.C.P.D.S.[am]}$PEPTIDE1,PEPTIDE1,1:R3-6:R3$$$V2.0), for which the EC50 was > 100 µM in experiment [1]; > 100 µM in experiment [2]; > 100 µM in experiment [3]; 1720 nM in experiment [4]; > 100000 nM in experiment [5]; > 100 µM in experiment [6]. For the same compound, the EC50 in experiment [7] and in experiment [8] was > 100 µM in each case.

The values above are taken from article PMC7143535, “Synthesis, Pharmacological and Structural Characterization of Novel Conopressins from Conus miliaris” (Marine Drugs, 2020).
